From PubChem BioAssay AID1919000 (Molecular Pharmacology Branch, DTP, NCI, 2023)
“And” between values parts separate entries of the source, which are not always exact repeats. Identical values can stand only once.

System: 653999-131-R-J2-PDC complex spheroids, growth % test/control
Test: Anticancer human tumor 653999-131-R-J2-PDC patient-derived lung adenocarcinoma cell line growth inhibition [AhR]
Details: for viability, T/C: stronger effect = lower value
How it was run: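 Spheroids combined tumor cells with HUVEC endothelial cells and human MSCs as stroma. AhR antagonists were paired with standard or investigational drugs, each dosed in half-log steps down from near clinical Cmax, or from 10 microM where Cmax was unknown.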

[1] = curve of first compound, second compound 0.1 µM
[2] = curve of first compound, second compound 0.316 µM
[3] = curve of first compound, second compound 1 µM
[4] = curve of first compound, second compound 3.16 µM
[5] = curve of first compound, second compound 10 µM
[6] = second compound 0.1 µM, first compound 0.0316 µM
[7] = second compound 0.1 µM, first compound 0.1 µM
[8] = second compound 0.1 µM, first compound 0.316 µM
[9] = second compound 0.1 µM, first compound 1 µM
[10] = second compound 0.1 µM, first compound 3.16 µM
[11] = second compound 0.1 µM, first compound 10 µM
[12] = second compound 0.316 µM, first compound 0.0316 µM
[13] = second compound 0.316 µM, first compound 0.1 µM
[14] = second compound 0.316 µM, first compound 0.316 µM
[15] = second compound 0.316 µM, first compound 1 µM
[16] = second compound 0.316 µM, first compound 3.16 µM
[17] = second compound 0.316 µM, first compound 10 µM
[18] = second compound 1 µM, first compound 0.0316 µM
[19] = second compound 1 µM, first compound 0.1 µM
[20] = second compound 1 µM, first compound 0.316 µM
[21] = second compound 1 µM, first compound 1 µM
[22] = second compound 1 µM, first compound 3.16 µM
[23] = second compound 1 µM, first compound 10 µM
[24] = second compound 3.16 µM, first compound 0.0316 µM
[25] = second compound 3.16 µM, first compound 0.1 µM
[26] = second compound 3.16 µM, first compound 0.316 µM
[27] = second compound 3.16 µM, first compound 1 µM
[28] = second compound 3.16 µM, first compound 3.16 µM
[29] = second compound 3.16 µM, first compound 10 µM
[30] = second compound 10 µM, first compound 0.0316 µM
[31] = second compound 10 µM, first compound 0.1 µM
[32] = second compound 10 µM, first compound 0.316 µM
[33] = second compound 10 µM, first compound 1 µM
[34] = second compound 10 µM, first compound 3.16 µM
[35] = second compound 10 µM, first compound 10 µM
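Further: spheroids exposed to agents for seven days.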
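Wherever viability, T/C is given: 100% = DMSO vehicle control viability.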

Nc1ccn(C2OC(CO)C(O)C2(F)F)c(=O)n1 (centres undefined) + CC(CO)NC(=O)c1cc(-c2ccc(Cl)cc2)nn(-c2cnn(C)c2)c1=O
IC50 [1]: 1940 nM
IC50 [2]: 3060 nM
IC50 [3]: 4740 nM
IC50 [4]: 1600 nM
IC50 [5]: 6310 nM
viability, T/C [6]: 65.4%
viability, T/C [7]: 66.8%
viability, T/C [8]: 61.2%
viability, T/C [9]: 48%
viability, T/C [10]: 48.4%
viability, T/C [11]: 42.9%
viability, T/C [12]: 73.9%
viability, T/C [13]: 69.8%
viability, T/C [14]: 62.2%
viability, T/C [15]: 58.4%
viability, T/C [16]: 46.5%
viability, T/C [17]: 45.3%
viability, T/C [18]: 67.5%
viability, T/C [19]: 69.9%
viability, T/C [20]: 58.6%
viability, T/C [21]: 58.1%
viability, T/C [22]: 50.4%
viability, T/C [23]: 47.1%
viability, T/C [24]: 78.1%
viability, T/C [25]: 74%
viability, T/C [26]: 63.7%
viability, T/C [27]: 55.7%
viability, T/C [28]: 42.7%
viability, T/C [29]: 40.9%
viability, T/C [30]: 96.5%
viability, T/C [31]: 76.8%
viability, T/C [32]: 64.4%
viability, T/C [33]: 58%
viability, T/C [34]: 51.7%
viability, T/C [35]: 48.4%

COc1cc(C2c3cc4c(cc3C(OC3OC5COC(C)OC5C(O)C3O)C3COC(=O)C23)OCO4)cc(OC)c1O (centres undefined) + Cc1cncc(-c2nc(NCCc3c[nH]c4ccccc34)c3ncn(C(C)C)c3n2)c1
IC50 [1]: 841 nM
IC50 [2]: 732 nM
IC50 [3]: 1190 nM
IC50 [4]: 1640 nM
IC50 [5]: 44 nM
viability, T/C [6]: 92.3%
viability, T/C [7]: 94.7%
viability, T/C [8]: 58.6%
viability, T/C [9]: 51.5%
viability, T/C [10]: 37.9%
viability, T/C [11]: 28.6%
viability, T/C [12]: 91%
viability, T/C [13]: 79.7%
viability, T/C [14]: 58.1%
viability, T/C [15]: 45.6%
viability, T/C [16]: 39%
viability, T/C [17]: 28.4%
viability, T/C [18]: 93.1%
viability, T/C [19]: 84.3%
viability, T/C [20]: 71%
viability, T/C [21]: 49.3%
viability, T/C [22]: 40.9%
viability, T/C [23]: 29%
viability, T/C [24]: 96.4%
viability, T/C [25]: 85.6%
viability, T/C [26]: 69%
viability, T/C [27]: 54.5%
viability, T/C [28]: 44.4%
viability, T/C [29]: 31.2%
viability, T/C [30]: 50.2%
viability, T/C [31]: 47.1%
viability, T/C [32]: 46.2%
viability, T/C [33]: 36.3%
viability, T/C [34]: 31.6%
viability, T/C [35]: 33.8%

CC(C)CC(NC(=O)C(Cc1ccccc1)NC(=O)c1cnccn1)B(O)O (centres undefined) + Cc1cncc(-c2nc(NCCc3c[nH]c4ccccc34)c3ncn(C(C)C)c3n2)c1
IC50 [1]: 22.3 nM
IC50 [2]: 20.4 nM
IC50 [3]: 21.4 nM
IC50 [4]: 20.4 nM
IC50 [5]: 4.28 nM
viability, T/C (second compound 0.1 µM, first compound 0.000949 µM): 94.5%
viability, T/C (second compound 0.1 µM, first compound 0.003 µM): 130%
viability, T/C (second compound 0.1 µM, first compound 0.00949 µM): 103%
viability, T/C (second compound 0.1 µM, first compound 0.03 µM): 29.3%
viability, T/C (second compound 0.1 µM, first compound 0.0949 µM): 9.65%
viability, T/C (second compound 0.1 µM, first compound 0.3 µM): 3.26%
viability, T/C (second compound 0.316 µM, first compound 0.000949 µM): 108%
viability, T/C (second compound 0.316 µM, first compound 0.003 µM): 108%
viability, T/C (second compound 0.316 µM, first compound 0.00949 µM): 113%
viability, T/C (second compound 0.316 µM, first compound 0.03 µM): 20%
viability, T/C (second compound 0.316 µM, first compound 0.0949 µM): 8.44%
viability, T/C (second compound 0.316 µM, first compound 0.3 µM): 2.71%
viability, T/C (second compound 1 µM, first compound 0.000949 µM): 100%
viability, T/C (second compound 1 µM, first compound 0.003 µM): 126%
viability, T/C (second compound 1 µM, first compound 0.00949 µM): 112%
viability, T/C (second compound 1 µM, first compound 0.03 µM): 24%
viability, T/C (second compound 1 µM, first compound 0.0949 µM): 7.89%
viability, T/C (second compound 1 µM, first compound 0.3 µM): 3.25%
viability, T/C (second compound 3.16 µM, first compound 0.000949 µM): 118%
viability, T/C (second compound 3.16 µM, first compound 0.003 µM): 121%
viability, T/C (second compound 3.16 µM, first compound 0.00949 µM): 112%
viability, T/C (second compound 3.16 µM, first compound 0.03 µM): 18.5%
viability, T/C (second compound 3.16 µM, first compound 0.0949 µM): 4.53%
viability, T/C (second compound 3.16 µM, first compound 0.3 µM): 2.13%
viability, T/C (second compound 10 µM, first compound 0.000949 µM): 59.6%
viability, T/C (second compound 10 µM, first compound 0.003 µM): 66.7%
viability, T/C (second compound 10 µM, first compound 0.00949 µM): 20.5%
viability, T/C (second compound 10 µM, first compound 0.03 µM): 2.12%
viability, T/C (second compound 10 µM, first compound 0.0949 µM): 0.89%
viability, T/C (second compound 10 µM, first compound 0.3 µM): 0.72%

CC(CO)NC(=O)c1cc(-c2ccc(Cl)cc2)nn(-c2cnn(C)c2)c1=O (centres undefined)
viability, T/C (compound 0.1 µM): 93.8% [middle of 20 runs]
IC50 (compound alone, run of 05/31/2022): > 10000 nM

CC(C)c1c(-c2ccccc2)nc2c(C#N)c[nH]n2c1=O + Cc1ccccc1N=Nc1ccc(NC(=O)c2ccnn2C)c(C)c1
IC50 [1]: > 10000 nM
IC50 [2]: > 10000 nM
IC50 [3]: > 10000 nM
IC50 [4]: > 10000 nM
IC50 [5]: > 10000 nM
viability, T/C [6]: 97.4%
viability, T/C [7]: 101%
viability, T/C [8]: 107%
viability, T/C [9]: 95.6%
viability, T/C [10]: 98.5%
viability, T/C [11]: 99.1%
viability, T/C [12]: 96.5%
viability, T/C [13]: 105%
viability, T/C [14]: 103%
viability, T/C [15]: 98.9%
viability, T/C [16]: 98.2%
viability, T/C [17]: 111%
viability, T/C [18]: 106%
viability, T/C [19]: 126%
viability, T/C [20]: 108%
viability, T/C [21]: 105%
viability, T/C [22]: 109%
viability, T/C [23]: 104%
viability, T/C [24]: 99.4%
viability, T/C [25]: 115%
viability, T/C [26]: 107%
viability, T/C [27]: 92.8%
viability, T/C [28]: 90.3%
viability, T/C [29]: 105%
viability, T/C [30]: 97.5%
viability, T/C [31]: 105%
viability, T/C [32]: 111%
viability, T/C [33]: 92.7%
viability, T/C [34]: 107%
viability, T/C [35]: 108%

CC(C)c1c(-c2ccccc2)nc2c(C#N)c[nH]n2c1=O
viability, T/C (compound 0.0316 µM): 109% and 93.9% and 110%
viability, T/C (compound 0.1 µM): 112% (2×) and 109%
viability, T/C (compound 0.316 µM): 96.8% and 108% and 104%
viability, T/C (compound 1 µM): 90.2% and 116% and 109%
viability, T/C (compound 3.16 µM): 103% and 101% (2×)
viability, T/C (compound 10 µM): 96.2% (2×) and 103%
IC50 (curve of compound): > 10000 nM
